“Also recorded” adds a separate entry of the source.
How the values were obtained:
SIK3 = SIK3 (Homo sapiens, UniProt Q9Y2K2); experiment: CRTC2 activity as a measure of SIK3 inhibitory activity; format: cell-based; settings: 150 μM
Description: Comparative evaluation of pterosin derivatives was performed in terms of the inhibitory effect on SIK3 signaling. As a measure of the SIK3 inhibitory activity, the induced activity of the transcription coupling factor CRTC2 (which is also referred to as TORC2, serves as a coupling factor of the transcription factor CREB, and is an inhibition target of SIK3) was measured according to the method described in PCT/JP2012/063709.

[1] = system: embryonic mouse metatarsal bone; experiment: tissue culture of embryonic mouse metatarsal bone, safranin O, BrdU and Col10a1 staining; format: cell-based; settings: 300 μM, 7 days
Description: The metatarsal bone was isolated from a mouse embryo of E15.5, and tissue culture of the bone was performed in DMEM supplemented with 10% fetal calf serum. To the culture medium, 300 μM of the extracted pterosin B or the synthesized pterosin B was added, and the culture was further continued. Seven days later, the metatarsal bone was collected and its histological sections were prepared. At 8 hours before the collection of the metatarsal bone, BrdU was added to the culture medium. The histological sections of the metatarsal bone were stained with safranin O and immunostained with an anti-BrdU antibody. As a result, it was shown that, in the presence of the extracted pterosin B or the synthesized pterosin B, the safranin O-stained area and the BrdU-positive cell number were increased (FIGS. 2 and 3). Meanwhile, the number of hypertrophic chondrocytes was decreased in the presence of the extracted pterosin B or the synthesized pterosin B (FIG. 4).

human chondrocytes [2] = experiment: safranin O staining of pellet-cultured human primary chondrocytes; format: cell-based; settings: 300 μM, on and after 14 days (14 or 28 days)
Description: (§1) Chondrocytes collected from a person with medial compartmental idiopathic osteonecrosis under informed consent were cultured in DMEM (Dulbecco's Modified Eagle's Medium) supplemented with 10% fetal calf serum for 7 days (an image of a 3-day culture is shown in FIG. 5A), and then pelletized by centrifugation (FIG. 5A). The human chondrocyte pellet was cultured in DMEM supplemented with 10% fetal calf serum and 300 μM of the extracted pterosin B for 14 or 28 days. The cell pellet was collected and then stained with safranin O. As a result, it was shown that the staining intensity in the presence of the extracted pterosin B was increased on and after 14 days from the addition of the extracted pterosin B (FIG. 5B). In addition, the mRNA amounts of COL2A1, COL11A2, ACAN, SOX9, COL10A1 and COL1A1 relative to GAPDH in the cell pellet were measured by quantitative RT-PCR. As a result, the mRNA amounts of COL2A1, COL11A2, ACAN and SOX9 were increased by the addition of the […] pterosin B, while the mRNA amounts of COL10A1 and COL1A1 were decreased by the addition of the extracted pterosin B (FIG. 6). […] Therefore, pterosin B is considered to have the effect of promoting hyaline cartilage growth in humans as well.

human chondrocytes [3] = experiment: quantitative RT-PCR in pellet-cultured human primary chondrocytes; format: cell-based; settings: 300 μM, pellet culture 2 weeks
Description: as §1

[4] = system: mouse primary chondrocytes; experiment: quantitative RT-PCR in pellet-cultured mouse primary chondrocytes; format: cell-based; settings: for mRNA amount of Col10a1 relative to Gapdh: cell pellet, 300 μM, 2 or 4 weeks after addition
Description: (§2) Primary chondrocytes obtained from the distal femoral epiphyseal cartilage and the proximal tibial epiphyseal cartilage of 1- to 5-day-old mice were pelletized by centrifugation, and to the cell pellet, the extracted pterosin B at a given concentration (0 μM (only DMSO as a vehicle), 100 μM, 200 μM or 300 μM) was added in DMEM supplemented with 10% fetal calf serum. […] In addition, the mRNA amounts of Col2a1, Col10a1 and Sik3 relative to Gapdh in the cell pellet were measured by quantitative RT-PCR. […] Col2a1 is a gene relevant to […], and Col10a1 is a gene indicative of hypertrophic differentiation of chondrocytes.
In the same manner as in Example 1, primary chondrocytes obtained from 1- to 5-day-old mice were pelletized, and to the cell pellet, a pterosin derivative (synthesized pterosin B or pterosin Z) at 300 μM was added in DMEM supplemented with 10% fetal calf serum. At 2 or 4 weeks after the addition, the cell pellet was collected and the mRNA amount of Col10a1 relative to Gapdh was measured by quantitative RT-PCR. As a result, it was shown that Col10a1 was decreased by the addition of pterosin Z as well as the addition of the synthesized pterosin B (FIG. 9).

[5] = system: articular cartilage on the medial femoral epicondyle; experiment: intra-articular administration into the knee of C57BL/6 mice, articular cartilage histology; format: in vivo, mouse; settings: 3 times a week, 4 weeks
Excerpt: After the administration was continued for 4 weeks, the knee joint was dissected and then stained with safranin O/fast green/iron hematoxylin.

[6] = system: mouse primary chondrocytes; experiment: safranin O staining of pellet-cultured mouse primary chondrocytes; format: cell-based; settings: cell pellet, 100, 200 or 300 μM, 28 days after addition
Description: as §2

[7] = cell pellet, 100, 200 or 300 μM, 28 days

SIK3, sequence (Q9Y2K2 whole entry, species assumed): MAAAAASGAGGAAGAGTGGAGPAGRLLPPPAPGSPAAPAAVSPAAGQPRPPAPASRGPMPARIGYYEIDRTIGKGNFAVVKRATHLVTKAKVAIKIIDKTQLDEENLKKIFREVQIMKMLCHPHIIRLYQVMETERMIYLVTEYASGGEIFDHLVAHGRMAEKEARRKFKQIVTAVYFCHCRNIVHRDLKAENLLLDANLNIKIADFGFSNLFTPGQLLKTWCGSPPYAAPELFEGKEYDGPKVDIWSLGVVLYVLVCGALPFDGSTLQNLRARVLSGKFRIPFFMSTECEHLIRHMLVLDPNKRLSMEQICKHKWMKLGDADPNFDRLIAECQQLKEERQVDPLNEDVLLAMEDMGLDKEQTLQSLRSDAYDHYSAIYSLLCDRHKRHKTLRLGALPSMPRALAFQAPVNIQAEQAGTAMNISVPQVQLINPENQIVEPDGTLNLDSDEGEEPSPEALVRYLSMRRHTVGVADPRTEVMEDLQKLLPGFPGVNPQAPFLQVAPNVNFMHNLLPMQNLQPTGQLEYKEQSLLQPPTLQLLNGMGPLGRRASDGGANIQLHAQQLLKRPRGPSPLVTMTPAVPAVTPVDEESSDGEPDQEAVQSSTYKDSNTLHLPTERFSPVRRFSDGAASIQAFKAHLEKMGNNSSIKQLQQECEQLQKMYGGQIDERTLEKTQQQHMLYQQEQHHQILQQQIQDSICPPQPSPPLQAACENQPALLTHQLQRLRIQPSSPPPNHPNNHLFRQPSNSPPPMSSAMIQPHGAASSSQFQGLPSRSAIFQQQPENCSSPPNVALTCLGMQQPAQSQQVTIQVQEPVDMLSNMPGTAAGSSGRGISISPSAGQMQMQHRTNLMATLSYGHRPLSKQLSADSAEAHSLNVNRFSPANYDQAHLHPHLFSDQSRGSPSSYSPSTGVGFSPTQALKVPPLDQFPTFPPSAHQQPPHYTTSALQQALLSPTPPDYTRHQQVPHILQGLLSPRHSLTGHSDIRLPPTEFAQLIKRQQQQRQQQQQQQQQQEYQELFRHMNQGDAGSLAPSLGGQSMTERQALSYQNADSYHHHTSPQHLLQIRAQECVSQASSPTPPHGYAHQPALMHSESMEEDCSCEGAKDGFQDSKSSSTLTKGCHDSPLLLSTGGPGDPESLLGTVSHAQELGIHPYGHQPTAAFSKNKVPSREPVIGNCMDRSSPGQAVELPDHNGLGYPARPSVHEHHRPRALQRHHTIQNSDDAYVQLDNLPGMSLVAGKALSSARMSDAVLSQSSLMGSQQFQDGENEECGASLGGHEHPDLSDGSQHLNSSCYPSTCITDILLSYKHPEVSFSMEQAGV

COCCc1c(C)c(O)c2c(c1C)C(=O)C(C)(C)C2 [14-O-methyl-onitin, 14-O-methylonitin]
SIK3 inhibitory activity (induced activity of CRTC2) (SIK3): highly active than pterosin B

COCCc1c(C)cc2c(c1C)C(=O)C(OC)C2 (stereo not shown) [14-O-methyl-pterosin G, 14-O-methylpterosin G]
SIK3 inhibitory activity (induced activity of CRTC2) (SIK3): highly active than pterosin B

Cc1c(O)c2c(c(C)c1CCCl)C(=O)C(C)(C)C2 [14-chloro-onitin, 14-deoxy-14-chloroonitin]
SIK3 inhibitory activity (induced activity of CRTC2) (SIK3): highly active than pterosin B

Cc1cc2c(c(C)c1CCO)C(=O)C(C)C2 (stereo not shown) [extracted pterosin B, pterosin B]
number of hypertrophic chondrocytes [1]: decreased
safranin O-stained area [1]: increased
BrdU-positive cell number ([1]; BrdU 8 hours before collection): increased
safranin O staining intensity (human chondrocytes [2]): increased
mRNA amount of COL1A1 relative to GAPDH (human chondrocytes [3]): decreased
mRNA amount of COL10A1 relative to GAPDH (human chondrocytes [3]): decreased
amount of Col2a1 mRNA relative to Gapdh [4, 7]: increased with increasing concentration
amount of Col10a1 mRNA relative to Gapdh [4, 7]: decreased with increasing concentration
Findings of medial femoral epicondyle ([5]; 300 μM into left knee articular cavity, one line per mouse (No. 4-7)): No apparent abnormalities; also recorded: Moderate osteoarthritis
Findings of medial femoral epicondyle ([5]; 900 μM into left knee articular cavity, one line per mouse (No. 8-11)): No apparent abnormalities; also recorded: Moderate osteoarthritis
safranin O staining intensity [6]: increased with increasing concentration

Cc1c(O)c2c(c(C)c1CCO)C(=O)C(C)(C)C2 [onitin]
SIK3 inhibitory activity (induced activity of CRTC2) (SIK3): highly active than pterosin B

Cc1cc2c(c(C)c1CCO)C(=O)C(C)C2 (stereo not shown) [pterosin B]
SIK3 inhibitory activity (induced activity of CRTC2) (SIK3): slightly inhibit
area of the articular cartilage on the medial femoral epicondyle ([5]; 300 μM or 900 μM intra-articular): increased with increasing concentration

COCCc1c(C)cc2c(c1C)C(=O)C(C)(C)C2 [pterosin I]
SIK3 inhibitory activity (induced activity of CRTC2) (SIK3): highly active than pterosin B

Cc1cc2c(c(C)c1CCO)C(=O)C(C)(C)C2 [pterosin Z]
SIK3 inhibitory activity (induced activity of CRTC2) (SIK3): highly active than pterosin B
mRNA amount of Col10a1 relative to Gapdh [4]: decreased

Cc1cc2c(c(C)c1CCO)C(=O)C(C)C2 (stereo not shown) [synthesized pterosin B, pterosin B]
mRNA amount of ACAN relative to GAPDH (human chondrocytes [3]): increased
mRNA amount of COL2A1 relative to GAPDH (human chondrocytes [3]): increased
mRNA amount of COL11A2 relative to GAPDH (human chondrocytes [3]): increased
mRNA amount of SOX9 relative to GAPDH (human chondrocytes [3]): increased
mRNA amount of Col10a1 relative to Gapdh [4]: decreased

Reference: patent US9668985B2, “Pterosin derivative-containing therapeutic preparation for disease associated with cartilage loss, cartilage degeneration and/or cartilage thinning” (KYOTO UNIVERSITY, priority 2013, dated 2017)
